Test system: human platelet suspension
Assay: U46619-induced platelet aggregation in human platelet suspension
Assay type: cell-based
Conditions: Homo sapiens, Platelet, U46619-induced aggregation, platelet suspension; read-out: P.S(U46619) IC50
Method: Human platelet suspension (PS) was prepared according to the method described previously. Briefly, blood sample, freshly obtained from healthy volunteers who had taken no medications during the preceding 2 weeks, was treated with acid citrate/dextrose (ACD) in a volume ratio of 9:1. After centrifugation at 120 g, 25° C. for 9 min, platelet-rich plasma was transferred into another plastic tube and incubated with heparin (6.4 U/ml) as well as prostaglandin E1 (1 μM). Platelets were spun down by centrifugation at 500 g, 25° C. for 8 min and subsequently washed two times with Tyrode solution (NaH2PO4 0.4 mM; NaCl 136.9 mM; KCl […]; NaHCO3 11.9 mM; CaCl2 2 mM; MgCl2 2.1 mM; glucose 11.1 mM; BSA 3.5 mg/ml; pH 7.35-7.4). The washed platelets were finally suspended in Tyrode's solution and the platelet count was adjusted to 3.75×10^8 platelets/ml. For platelet-rich plasma (PRP) preparation, whole blood was anticoagulated with 1/10 vol of sodium citrate (3.8%, w/v) and centrifuged at 150 g, 25° C. for 9 min.
Platelet aggregation was measured turbidimetrically with a Lumi-aggregometer (Payton Scientific) at 37° C. under stirring condition (900 rpm). Platelet suspensions were prewarmed to 37° C. for 2 min in a silicone-treated glass cuvette. Nstpbp5185 was added 3 min before the addition of platelet-aggregation inducers. The extent of platelet aggregation was determined by recording the increase of light transmission relative to that of control (maximal aggregation, as 100%) for 6 min after the addition of inducer. The final volume and platelet count for measuring platelet aggregation were 500 μl and 3×10^8/ml, respectively.

| Compound | IC50 [µM] |
| --- | --- |
| Cc1ccc(-c2nc3ccccc3n2Cc2ccccc2F)o1 [Example 13, 1-(o-Fluorobenzyl)-2-(5-methyl-2-furyl)benzimidazole] | 13.1 |
| Cc1ccc(-c2nc3ccccc3n2Cc2ccccn2)o1 [Example 22, 1-(2-Picoyl)-2-(5-methyl-2-furyl)benzimidazole] | 4.29 |
| Cc1ccc(-c2nc3ccccc3n2Cc2cccnc2)o1 [Example 23, 1-(3-Picoyl)-2-(5-methyl-2-furyl)benzimidazole] | 3.01 |
| Cc1ccc(-c2nc3ccccc3n2Cc2ccncc2)o1 [Example 24, 1-(4-Picoyl)-2-(5-methyl-2-furyl)benzimidazole] | 14.6 |
| COc1ccc2[nH]c(-c3ccc(C)o3)nc2c1 [Example 25, 5-Methoxy-2-(5-methyl-2-furyl)benzimidazole] | 44.5 |
| COc1ccc2nc(-c3ccc(C)o3)n(Cc3ccccc3)c2c1 [Example 25a, 1-benzyl-6-methoxy-2-(5-methyl-2-furyl)benzimidazole] | 1.45 |
| COc1ccc2c(c1)nc(-c1ccc(C)o1)n2Cc1ccccc1 [Example 25b, 1-benzyl-5-methoxy-2-(5-methyl-2-furyl)benzimidazole] | 3.3 |
| COc1ccc2nc(-c3ccc(C)o3)n(Cc3cccc(C)c3)c2c1 [Example 27a, 6-methoxy-1-(3-methylbenzyl)-2-(5-methyl-2-furyl)benzimidazole] | 19.2 |
| COc1ccc2c(c1)nc(-c1ccc(C)o1)n2Cc1cccc(C)c1 [Example 27b, 5-methoxy-1-(3-methylbenzyl)-2-(5-methyl-2-furyl)benzimidazole] | 26.9 |
| Cc1ccc2[nH]c(-c3ccc(C)o3)nc2c1 [Example 29, 5-methyl-2-(5-methyl-2-furyl)benzimidazole] | 33.7 |
| Cc1ccc(-c2nc3cc(F)ccc3[nH]2)o1 [Example 30] | 52.1 |
| Cc1ccc(-c2nc3ccc(F)cc3n2Cc2ccccc2)o1 [Example 30a, 1-benzyl-6-fluoro-2-(5-methyl-2-furyl)benzimidazole] | 6.79 |
| Cc1ccc(-c2nc3cc(F)ccc3n2Cc2ccccc2Cl)o1 [Example 31a, 5-fluoro-1-(2-chlorobenzyl)-2-(5-methyl-2-furyl)benzimidazole] | 22.7 |
| Cc1ccc(-c2nc3ccc(F)cc3n2Cc2ccccc2Cl)o1 [Example 31b, 6-fluoro-1-(2-chlorobenzyl)-2-(5-methyl-2-furyl)benzimidazole] | 12.7 |
| Cc1ccc(-c2nc3cc(F)ccc3n2Cc2cccc(Cl)c2)o1 [Example 32a, 5-fluoro-1-(3-chlorobenzyl)-2-(5-methyl-2-furyl)benzimidazole] | 4.26 |
| Cc1ccc(-c2nc3ccc(F)cc3n2Cc2cccc(Cl)c2)o1 [Example 32b, 6-fluoro-1-(3-chlorobenzyl)-2-(5-methyl-2-furyl)benzimidazole] | 3.09 |
| COc1ccc(Cn2c(-c3ccc(C)o3)nc3cc(F)ccc32)cc1 [Example 34a, 5-fluoro-1-(4-methoxybenzyl)-2-(5-methyl-2-furyl)benzimidazole] | 34.5 |
| COc1ccc(Cn2c(-c3ccc(C)o3)nc3ccc(F)cc32)cc1 [Example 34b, 6-fluoro-1-(4-methoxybenzyl)-2-(5-methyl-2-furyl)benzimidazole] | 32.2 |
| Cc1ccc(-c2nc3cc(F)ccc3n2Cc2cccc(F)c2)o1 [Example 37a, 5-fluoro-1-(3-fluorobenzyl)-2-(5-methyl-2-furyl)benzimidazole] | 1.7 |
| Cc1ccc(-c2nc3ccc(F)cc3n2Cc2cccc(F)c2)o1 [Example 37b, 6-fluoro-1-(3-fluorobenzyl)-2-(5-methyl-2-furyl)benzimidazole] | 1.17 |
| Cc1ccc(-c2nc3cc(F)ccc3n2Cc2ccccc2F)o1 [Example 38a, 5-fluoro-1-(2-fluorobenzyl)-2-(5-methyl-2-furyl)benzimidazole] | 4.14 |
| Cc1ccc(-c2nc3ccc(F)cc3n2Cc2ccccc2F)o1 [Example 38b, 6-Fluoro-1-(2-fluorobenzyl)-2-(5-methyl-2-furyl)benzimidazole] | 2.7 |
| Cc1cccc(Cn2c(-c3ccc(C)o3)nc3cc(F)ccc32)c1 [Example 40a, 5-fluoro-1-(3-methylbenzyl)-2-(5-methyl-2-furyl)benzimidazole] | 14.6 |
| Cc1cccc(Cn2c(-c3ccc(C)o3)nc3ccc(F)cc32)c1 [Example 40b, 6-Fluoro-1-(3-methylbenzyl)-2-(5-methyl-2-furyl)benzimidazole] | 5.39 |

| Compound | IC50 [µM] |
| --- | --- |
| Cc1ccc(-c2nc3cc(F)ccc3n2Cc2ccccc2C)o1 [Example 41a, 5-fluoro-1-(2-methylbenzyl)-2-(5-methyl-2-furyl)benzimidazole] | 2.61 |
| Cc1ccc(-c2nc3ccc(F)cc3n2Cc2ccccc2C)o1 [Example 41b, 6-fluoro-1-(2-methylbenzyl)-2-(5-methyl-2-furyl)benzimidazole] | 2.38 |
| Cc1ccc(-c2nc3cc(Cl)ccc3[nH]2)o1 [Example 42] | 37.3 |
| Cc1ccc(-c2nc3ccc(Cl)cc3n2Cc2ccccc2)o1 [Example 42a, 1-benzyl-6-chloro-2-(5-methyl-2-furyl)benzimidazole] | 3.55 |
| Cc1ccc(-c2nc3cc(Cl)ccc3n2Cc2ccccc2)o1 [Example 42b, 1-benzyl-5-chloro-2-(5-methyl-2-furyl)benzimidazole] | 4.43 |
| Cc1ccc(-c2nc3ccc(Cl)cc3n2Cc2ccc(Cl)cc2)o1 [Example 43a, 6-chloro-1-(4-chlorobenzyl)-2-(5-methyl-2-furyl) benzimidazole] | 36.5 |
| Cc1ccc(-c2nc3cc(Cl)ccc3n2Cc2ccc(Cl)cc2)o1 [Example 43b, 5-chloro-1-(4-chlorobenzyl)-2-(5-methyl-2-furyl)benzimidazole] | 127 |
| Cc1ccc(-c2nc3cc(Cl)ccc3n2Cc2cccc(Cl)c2)o1 [Example 44a, 5-chloro-1-(3-chlorobenzyl)-2-(5-methyl-2-furyl)benzimidazole] | 9.74 |
| Cc1ccc(-c2nc3ccc(Cl)cc3n2Cc2cccc(Cl)c2)o1 [Example 44b, 6-chloro-1-(3-chlorobenzyl)-2-(5-methyl-2-furyl)benzimidazole] | 3.1 |
| Cc1ccc(-c2nc3cc(Cl)ccc3n2Cc2ccccc2Cl)o1 [Example 45a, 5-chloro-1-(2-chlorobenzyl)-2-(5-methyl-2-furyl)benzimidazole] | 46.3 |
| Cc1ccc(-c2nc3ccc(Cl)cc3n2Cc2ccccc2Cl)o1 [Example 45b, 6-chloro-1-(2-chlorobenzyl)-2-(5-methyl-2-furyl)benzimidazole] | 7.52 |
| Cc1ccc(-c2nc3ccc(Cl)cc3n2Cc2ccc(F)cc2)o1 [Example 46a, 6-chloro-1-(4-fluorobenzyl)-2-(5-methyl-2-furyl)benzimidazole] | 3.13 |
| Cc1ccc(-c2nc3cc(Cl)ccc3n2Cc2ccc(F)cc2)o1 [Example 46b, 5chloro-1-(4-fluorobenzyl)-2-(5-methyl-2-furyl)benzimidazole] | 9.59 |
| Cc1ccc(-c2nc3cc(Cl)ccc3n2Cc2cccc(F)c2)o1 [Example 47a, 5-chloro-1-(3-fluorobenzyl)-2-(5-methyl-2-furyl)benzimidazole] | 5.55 |
| Cc1ccc(-c2nc3ccc(Cl)cc3n2Cc2cccc(F)c2)o1 [Example 47b, 6-chloro-1-(3-fluorobenzyl)-2-(5-methyl-2-furyl)benzimidazole] | 4.42 |
| Cc1ccc(-c2nc3cc(Cl)ccc3n2Cc2ccccc2F)o1 [Example 48a, 5-chloro-1-(2-fluorobenzyl)-2-(5-methyl-2-furyl)benzimidazole] | 6.7 |
| Cc1ccc(-c2nc3ccc(Cl)cc3n2Cc2ccccc2F)o1 [Example 48b, 6-chloro-1-(2-fluorobenzyl)-2-(5-methyl-2-furyl)benzimidazole] | 3.11 |
| COc1ccc(Cn2c(-c3ccc(C)o3)nc3ccc(Cl)cc32)cc1 [Example 49b, 6-chloro-1-(4-methoxybenzyl)-2-(5-methyl-2-furyl)benzimidazole] | 29.6 |
| COc1cccc(Cn2c(-c3ccc(C)o3)nc3cc(Cl)ccc32)c1 [Example 50a, 5-chloro-1-(3-methoxybenzyl)-2-(5-methyl-2-furyl)benzimidazole] | 38 |
| COc1cccc(Cn2c(-c3ccc(C)o3)nc3ccc(Cl)cc32)c1 [Example 50b, 6-chloro-1-(3-methoxybenzyl)-2-(5-methyl-2-furyl)benzimidazole] | 27.4 |
| Cc1ccc(Cn2c(-c3ccc(C)o3)nc3ccc(Cl)cc32)cc1 [Example 51a, 6-chloro-1-(4-methylbenzyl)-2-(5-methyl-2-furyl)benzimidazole] | 53.4 |
| Cc1ccc(Cn2c(-c3ccc(C)o3)nc3cc(Cl)ccc32)cc1 [Example 51b, 5-chloro-1-(4-methylbenzyl)-2-(5-methyl-2-furyl)benzimidazole] | 62.8 |
| Cc1cccc(Cn2c(-c3ccc(C)o3)nc3cc(Cl)ccc32)c1 [Example 52a, 5-chloro-1-(3-methylbenzyl)-2-(5-methyl-2-furyl)benzimidazole] | 29.9 |
| Cc1cccc(Cn2c(-c3ccc(C)o3)nc3ccc(Cl)cc32)c1 [Example 52b, 6-chloro-1-(3-methylbenzyl)-2-(5-methyl-2-furyl)benzimidazole] | 5.22 |
